Read-outs that look alike come from different tables or passages of the source.
How the values were obtained:
[1] = tested on: oedema induced by carrageenan in the rat paw; assay: inhibition of carrageenan-induced oedema in the rat paw (Winter et al., modified); type: in vivo; details: po, read-out: % inhibition of carrageenan oedema at 2.5 mg/kg orally
lipoxygenase = biological target: T1, lipoxygenase (Rattus norvegicus, UniProt P12527); assay: inhibition of arachidonic acid metabolism via the lipoxygenase route: LTB4 release from PMN of the rat after stimulation with Ca ionophor, reverse phase HPLC; type: cell-based; details: read-out: % inhibition of lipoxygenase at 1 × 10^-5 mol/l
T1 construct: release of LTB4 from neutrophilic granulocytes (PMN) of the rat; endogenous in cells; host or cells: rat neutrophilic granulocytes (PMN)
T1 sequence (P12527 1-673): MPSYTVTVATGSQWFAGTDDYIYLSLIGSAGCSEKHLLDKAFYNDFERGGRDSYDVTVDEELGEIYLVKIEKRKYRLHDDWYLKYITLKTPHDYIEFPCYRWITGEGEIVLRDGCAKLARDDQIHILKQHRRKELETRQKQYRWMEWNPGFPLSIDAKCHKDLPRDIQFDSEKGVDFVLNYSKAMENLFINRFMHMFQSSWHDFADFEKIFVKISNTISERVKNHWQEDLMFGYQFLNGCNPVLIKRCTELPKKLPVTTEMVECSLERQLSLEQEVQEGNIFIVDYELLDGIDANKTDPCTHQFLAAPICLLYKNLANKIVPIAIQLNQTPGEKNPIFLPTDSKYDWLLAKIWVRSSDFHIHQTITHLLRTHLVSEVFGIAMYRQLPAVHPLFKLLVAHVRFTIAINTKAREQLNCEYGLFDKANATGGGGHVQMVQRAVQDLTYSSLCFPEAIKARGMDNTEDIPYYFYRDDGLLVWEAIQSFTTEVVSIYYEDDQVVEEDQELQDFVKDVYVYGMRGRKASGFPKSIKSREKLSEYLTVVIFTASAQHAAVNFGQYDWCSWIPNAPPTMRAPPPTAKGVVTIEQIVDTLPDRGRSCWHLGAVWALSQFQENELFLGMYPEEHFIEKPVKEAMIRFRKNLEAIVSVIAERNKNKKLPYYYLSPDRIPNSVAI

cyclooxygenase = biological target: T2, cyclooxygenase (Mus musculus, UniProt P22437); assay: inhibition of arachidonic acid metabolism via the cyclooxygenase route (Brune et al.); type: biochemical; details: read-out: % inhibition of cyclooxygenase at 1 × 10^-5 mol/l
T2 construct: endogenous in cells
T2 sequence (P22437 27-602): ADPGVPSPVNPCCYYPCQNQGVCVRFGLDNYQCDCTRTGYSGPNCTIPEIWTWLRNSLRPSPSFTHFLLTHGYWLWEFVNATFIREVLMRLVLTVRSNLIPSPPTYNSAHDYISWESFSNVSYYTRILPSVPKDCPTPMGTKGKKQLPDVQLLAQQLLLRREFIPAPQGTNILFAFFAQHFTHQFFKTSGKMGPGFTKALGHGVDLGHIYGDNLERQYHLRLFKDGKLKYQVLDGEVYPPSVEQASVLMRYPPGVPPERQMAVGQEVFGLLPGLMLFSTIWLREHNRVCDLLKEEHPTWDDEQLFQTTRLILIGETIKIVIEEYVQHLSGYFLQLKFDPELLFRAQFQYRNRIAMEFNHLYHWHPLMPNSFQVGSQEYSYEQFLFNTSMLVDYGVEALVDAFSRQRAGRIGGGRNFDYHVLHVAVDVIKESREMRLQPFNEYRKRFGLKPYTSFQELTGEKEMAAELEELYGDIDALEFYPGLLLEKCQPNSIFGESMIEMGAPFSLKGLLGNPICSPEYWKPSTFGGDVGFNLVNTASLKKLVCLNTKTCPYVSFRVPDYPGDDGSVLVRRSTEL

PMN = assay: inhibition of aggregation of PMN stimulated by LTB4 (Cunningham et al.); type: cell-based; details: 1 × 10^-4 mol/l
[2] = rat paw, 2.5 mg/kg orally, λ-carrageenan 0.25% suspension in physiological saline
[3] = 1 × 10^-5 mol/l, LTB4 release from rat PMN, Ca ionophor

inhibition at 10 µM (lipoxygenase; [3]) [%] | inhibition at 10 µM (cyclooxygenase) [%] | Compound | inhibition in vivo at 2.5 mg/kg [1, 2] [%] | inhibition at 100 µM (PMN) [%] | inhibition in vivo at 2.5 mg/kg ([1]; Rattus norvegicus) [%] | inhibition at 10 µM (lipoxygenase) [%]
100 | 45 | COCCOC1=CC(=O)c2ccccc2C1=O [Compound 3] | 38 |  |  | 
100 | 65 | NC1=CC(=O)c2cc(S(N)(=O)=O)ccc2C1=O [Compound 6] | 39 | 77 |  | 
98 | 78 | COC1=CC(=O)c2ccccc2C1=O [Compound 2] | 29 | 76 |  | 
100 | 65 | CC(=O)NC1=CC(=O)c2ccccc2C1=O [Compound 7] | 32 | 49 |  | 
100 |  | CCC(=O)NC1=C(OCCOC)C(=O)c2ccccc2C1=O [Compound 13, 2-Propionylamino-3-(2-methoxyethoxy)-1,4-naphthoquinone] | 48 |  |  | 
100 |  | CCOC1=C(NC(C)=O)C(=O)c2ccccc2C1=O [Compound 14, 2-Acetylamino-3-ethoxy-1,4-naphthoquinone] | 49 |  |  | 
100 | 72 | CC1=C(SCC(=O)O)C(=O)c2ccccc2C1=O [Compound 8] | 41 | 34 |  | 
100 | 38 | C=CCNC1=CC(=O)c2cc(S(N)(=O)=O)ccc2C1=O [Compound 12, 2-Allylamino-6-sulphamoyl-1,4-naphthoquinone] | 39 | 72 |  | 
100 | 89 | CC1=C(SCC(=O)NC(C)C)C(=O)c2ccccc2C1=O [Compound 10] | 45 | 95 |  | 
100 | 89 | CNC(=O)CSC1=C(C)C(=O)c2ccccc2C1=O [Compound 9] | 25 | 100 |  | 
80 | 50 | O=C(CSC1=C(SCC(=O)NCCO)C(=O)c2ccccc2C1=O)NCCO [Compound 11] | 45 | 36 |  | 
100 | 37 | COC1=C(OC)C(=O)c2ccccc2C1=O [Compound 4] | 36 | 79 |  | 

Compound | inhibition at 10 µM (lipoxygenase; [3]) [%] | inhibition at 10 µM (cyclooxygenase) [%] | inhibition in vivo at 2.5 mg/kg [1, 2] [%] | inhibition at 100 µM (PMN) [%] | inhibition in vivo at 2.5 mg/kg ([1]; Rattus norvegicus) [%] | inhibition at 10 µM (lipoxygenase) [%]
O=C1C=C(O)C(=O)c2ccccc21 [Compound 1] |  | 31 |  |  | 34 | 70
NC1=CC(=O)c2ccccc2C1=O [Compound 5] |  | 55 |  |  | 48 | 100

From patent publication US4628062A, “1,4-naphthoquinone derivatives having anti-inflammatory action” (priority 1983, dated 1986)
